We go through 14 compounds from ChEMBL document CHEMBL1759901 (Bioorg Med Chem Lett, 2011).

Active and inactive are the calls of the source. The calls are words filed in the database; no cut-off is given here. A value given as a limit tells only on which side of the number the result lay.

For series [1], the target named is Sodium-dependent noradrenaline transporter (Homo sapiens, UniProt P23975). In words: Inhibition of NET.
Series [2] concerns the target Sodium-dependent serotonin transporter (Homo sapiens, UniProt P31645). In words: Inhibition of serotonin transporter.
Series [3] addresses Cytochrome P450 2D6 (Homo sapiens, UniProt P10635). In words: Inhibition of CYP2D6. It is filed as ADME.
Series [4] has as its target Voltage-gated inwardly rectifying potassium channel KCNH2 (Homo sapiens, UniProt Q12809). Put plainly: Inhibition of human ERG.
The test system of series [5] is Hepatocyte. In words: Metabolic stability in human hepatocytes assessed as per 10^6 cells. It is filed as ADME, cell-based.
The nature of series [6]: Metabolic stability in human microsomes assessed as per mg of tissue. It is filed as ADME, Microsome.
Series [7] in a line: Clearance in iv dosed rat. The format is ADME, organism-based. As to conditions: in vivo.
Series [8] is described as follows: Volume of distribution at steady state in iv dosed rat. It is filed as ADME, organism-based. As to conditions: in vivo, read-out: Vdss.
Series [9] can be described thus: Half life in iv dosed rat. The settings on record: in vivo. The format is ADME, organism-based.
Series [10] in a line: Oral bioavailability in rat. It is filed as ADME, organism-based. The settings on record: in vivo.
Series [11] can be described thus: Lipophilicity, log D of the compound. It is filed as physicochemical. The settings on record: octanol/water.
The subject of series [12] is Hepatocyte. In words: Metabolic stability in rat hepatocytes assessed as per 10^6 cells. It is filed as ADME, cell-based.
In series [13] the target is T1, Nitric oxide synthase, inducible (Homo sapiens, UniProt P35228). In words: Inhibition of human recombinant iNOS.
T1 sequence (P35228 whole entry): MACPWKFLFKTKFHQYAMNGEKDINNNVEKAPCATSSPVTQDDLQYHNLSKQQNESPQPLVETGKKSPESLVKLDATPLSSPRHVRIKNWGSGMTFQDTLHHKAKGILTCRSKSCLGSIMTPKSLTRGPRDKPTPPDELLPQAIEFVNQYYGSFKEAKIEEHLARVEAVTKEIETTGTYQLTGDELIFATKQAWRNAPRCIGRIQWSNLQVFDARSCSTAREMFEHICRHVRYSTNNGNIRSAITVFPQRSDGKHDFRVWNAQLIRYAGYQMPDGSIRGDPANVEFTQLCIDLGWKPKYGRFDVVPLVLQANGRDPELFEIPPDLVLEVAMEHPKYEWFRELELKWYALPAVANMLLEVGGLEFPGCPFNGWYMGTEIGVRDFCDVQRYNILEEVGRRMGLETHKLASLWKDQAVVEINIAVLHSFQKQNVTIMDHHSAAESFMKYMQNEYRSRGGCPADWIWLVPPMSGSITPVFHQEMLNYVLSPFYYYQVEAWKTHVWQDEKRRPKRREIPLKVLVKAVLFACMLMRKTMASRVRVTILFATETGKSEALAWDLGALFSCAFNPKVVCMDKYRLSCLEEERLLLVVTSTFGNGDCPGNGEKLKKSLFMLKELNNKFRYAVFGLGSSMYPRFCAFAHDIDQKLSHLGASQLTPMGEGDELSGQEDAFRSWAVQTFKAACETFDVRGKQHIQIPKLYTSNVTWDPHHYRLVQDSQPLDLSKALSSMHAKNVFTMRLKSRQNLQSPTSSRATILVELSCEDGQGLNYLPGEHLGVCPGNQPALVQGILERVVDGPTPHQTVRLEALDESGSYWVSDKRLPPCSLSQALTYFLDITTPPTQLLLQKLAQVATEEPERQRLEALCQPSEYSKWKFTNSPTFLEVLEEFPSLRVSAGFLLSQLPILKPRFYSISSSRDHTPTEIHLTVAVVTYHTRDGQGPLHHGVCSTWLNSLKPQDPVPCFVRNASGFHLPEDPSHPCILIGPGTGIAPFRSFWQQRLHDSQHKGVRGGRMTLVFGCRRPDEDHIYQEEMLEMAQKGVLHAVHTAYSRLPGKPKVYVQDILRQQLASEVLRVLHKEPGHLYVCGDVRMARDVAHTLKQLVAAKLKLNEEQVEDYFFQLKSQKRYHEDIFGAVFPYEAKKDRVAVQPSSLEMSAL
The target in series [14] is T1, Nitric oxide synthase, inducible. In words: Inhibition of iNOS in intact human DLD1 cells assessed as nitric oxide production. It is filed as cell-based, DLD-1.
The species named for series [15] is Homo sapiens. In words: Selectivity ratio of IC50 for human recombinant iNOS to IC50 for human recombinant eNOS.
Series [16] has as its system Rattus norvegicus. Put plainly: Analgesic activity in Dark Agouti rat collagen-induced arthritis model at 75 umol/kg bid. The format is functional, organism-based.
In series [17] the test system is Rattus norvegicus. In words: Analgesic activity in Dark Agouti rat collagen-induced arthritis model assessed as reduction in inflammation at 75 umol/kg bid by histological analysis. It is filed as functional, organism-based.
In series [18] the test system is Rattus norvegicus. In words: Analgesic activity in Dark Agouti rat collagen-induced arthritis model assessed as reduction in erosion scores at 75 umol/kg bid by histological analysis. It is filed as functional, organism-based.

Sodium-dependent serotonin transporter, sequence (P31645 whole entry): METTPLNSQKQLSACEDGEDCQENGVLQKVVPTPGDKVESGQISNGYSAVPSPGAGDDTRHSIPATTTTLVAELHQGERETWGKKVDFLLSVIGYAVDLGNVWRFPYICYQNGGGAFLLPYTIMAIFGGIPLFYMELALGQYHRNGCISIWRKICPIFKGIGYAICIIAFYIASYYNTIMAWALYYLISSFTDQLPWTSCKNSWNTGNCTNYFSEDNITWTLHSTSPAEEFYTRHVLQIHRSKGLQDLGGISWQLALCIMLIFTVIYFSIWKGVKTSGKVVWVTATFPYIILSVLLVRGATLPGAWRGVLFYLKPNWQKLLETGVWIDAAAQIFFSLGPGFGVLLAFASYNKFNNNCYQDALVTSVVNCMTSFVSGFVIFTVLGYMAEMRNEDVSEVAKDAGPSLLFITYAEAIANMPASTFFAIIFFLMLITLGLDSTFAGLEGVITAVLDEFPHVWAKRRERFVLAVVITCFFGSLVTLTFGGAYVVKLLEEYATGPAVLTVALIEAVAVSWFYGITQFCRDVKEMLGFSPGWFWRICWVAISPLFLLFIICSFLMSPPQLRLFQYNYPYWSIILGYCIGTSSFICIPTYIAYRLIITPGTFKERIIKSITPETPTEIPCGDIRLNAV
Cytochrome P450 2D6, sequence (P10635 whole entry): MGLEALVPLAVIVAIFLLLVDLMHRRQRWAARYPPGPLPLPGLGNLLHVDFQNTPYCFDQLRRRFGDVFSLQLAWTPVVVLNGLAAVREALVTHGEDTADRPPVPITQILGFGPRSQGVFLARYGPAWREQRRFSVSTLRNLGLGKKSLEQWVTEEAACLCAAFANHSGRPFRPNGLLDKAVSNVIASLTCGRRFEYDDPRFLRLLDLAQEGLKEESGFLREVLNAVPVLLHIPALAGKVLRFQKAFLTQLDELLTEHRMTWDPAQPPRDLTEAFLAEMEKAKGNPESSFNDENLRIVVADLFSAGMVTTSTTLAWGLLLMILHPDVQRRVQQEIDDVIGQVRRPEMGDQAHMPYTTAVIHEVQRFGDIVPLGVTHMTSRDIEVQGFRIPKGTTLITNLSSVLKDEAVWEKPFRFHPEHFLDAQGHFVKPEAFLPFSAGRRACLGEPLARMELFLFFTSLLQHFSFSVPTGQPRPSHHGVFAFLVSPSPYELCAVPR
Sodium-dependent noradrenaline transporter, sequence (P23975 whole entry): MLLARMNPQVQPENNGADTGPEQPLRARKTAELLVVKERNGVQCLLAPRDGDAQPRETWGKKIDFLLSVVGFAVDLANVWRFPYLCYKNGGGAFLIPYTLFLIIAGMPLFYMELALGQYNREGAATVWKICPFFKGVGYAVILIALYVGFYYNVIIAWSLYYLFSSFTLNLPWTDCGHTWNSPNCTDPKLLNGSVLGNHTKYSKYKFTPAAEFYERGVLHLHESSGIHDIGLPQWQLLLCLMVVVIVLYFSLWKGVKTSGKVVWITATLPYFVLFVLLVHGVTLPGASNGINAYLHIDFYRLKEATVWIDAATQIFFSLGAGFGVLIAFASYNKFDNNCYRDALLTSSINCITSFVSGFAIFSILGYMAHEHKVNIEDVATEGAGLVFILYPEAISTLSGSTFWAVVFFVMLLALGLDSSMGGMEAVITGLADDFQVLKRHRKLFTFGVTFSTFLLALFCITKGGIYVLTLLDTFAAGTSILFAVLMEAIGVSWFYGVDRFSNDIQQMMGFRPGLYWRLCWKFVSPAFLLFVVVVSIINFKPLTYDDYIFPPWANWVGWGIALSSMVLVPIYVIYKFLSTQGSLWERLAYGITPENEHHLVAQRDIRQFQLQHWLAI
Voltage-gated inwardly rectifying potassium channel KCNH2, sequence (Q12809 whole entry): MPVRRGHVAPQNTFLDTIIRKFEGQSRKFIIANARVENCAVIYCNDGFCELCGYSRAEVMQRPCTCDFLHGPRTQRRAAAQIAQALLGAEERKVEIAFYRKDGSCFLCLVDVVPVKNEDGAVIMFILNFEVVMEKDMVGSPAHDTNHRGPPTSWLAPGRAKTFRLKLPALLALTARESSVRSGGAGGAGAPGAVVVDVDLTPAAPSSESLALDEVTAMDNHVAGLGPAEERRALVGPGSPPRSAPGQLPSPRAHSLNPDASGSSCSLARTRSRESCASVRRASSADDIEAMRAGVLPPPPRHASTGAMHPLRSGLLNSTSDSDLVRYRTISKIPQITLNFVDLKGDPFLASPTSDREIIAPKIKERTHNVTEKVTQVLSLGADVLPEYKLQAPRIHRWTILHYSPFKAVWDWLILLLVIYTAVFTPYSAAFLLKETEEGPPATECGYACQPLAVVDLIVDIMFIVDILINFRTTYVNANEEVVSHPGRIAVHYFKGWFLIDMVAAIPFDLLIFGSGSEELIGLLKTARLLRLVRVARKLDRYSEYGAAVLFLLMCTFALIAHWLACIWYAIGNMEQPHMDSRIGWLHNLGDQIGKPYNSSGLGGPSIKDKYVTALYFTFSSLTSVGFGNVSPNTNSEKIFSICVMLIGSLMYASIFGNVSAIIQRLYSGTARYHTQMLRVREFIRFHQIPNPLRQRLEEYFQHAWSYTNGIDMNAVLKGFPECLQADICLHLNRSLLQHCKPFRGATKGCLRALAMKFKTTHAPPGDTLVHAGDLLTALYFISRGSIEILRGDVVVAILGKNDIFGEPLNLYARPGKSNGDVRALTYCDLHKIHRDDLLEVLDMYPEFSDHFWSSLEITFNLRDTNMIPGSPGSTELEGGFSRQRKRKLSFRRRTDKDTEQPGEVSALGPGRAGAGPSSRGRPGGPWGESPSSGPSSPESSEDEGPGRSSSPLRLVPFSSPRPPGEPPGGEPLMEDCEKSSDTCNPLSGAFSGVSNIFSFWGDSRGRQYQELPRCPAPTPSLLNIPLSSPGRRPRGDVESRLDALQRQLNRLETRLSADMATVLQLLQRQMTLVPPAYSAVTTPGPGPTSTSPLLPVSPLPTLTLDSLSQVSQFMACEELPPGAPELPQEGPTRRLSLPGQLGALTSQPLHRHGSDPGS

For `N#Cc1ccc(C(=O)N2CCC3(CC2)N=C(N)c2c(F)ccc(F)c2N3)cn1`, the IC50 result was “Not Active” in [1], “Not Active” in series [2], “Not Active” in series [3] and 0.1 µM in series [4] (read-out: IC50). The figures for the Stability in [5], in series [6] and in [12] were under 3 µL/min, “Unstable” and 5 µL/min, respectively. In addition, the clearance in series [7] worked out at 57 mL/min/kg. Besides, the Vd in series [8] was determined as 4.5 L/kg. In series [9], the half-life was 1.1 h. In addition, in series [10], the bioavailability was determined as 75%. The same compound yielded a logD in series [11] of 0.79.

With `N#Cc1ccc(Cl)cc1S[C@H](CCN)c1ccccc1.O=C(O)/C=C/C(=O)O`, the IC50 was 0.004 µM in [13]; 17 µM in series [1] (read-out: IC50); 6.7 µM in series [2] (read-out: IC50); 4.1 µM in series [3] (read-out: IC50); “Not Active” in series [4]; […] in series [14] (read-out: IC50).

In the case of `Cc1ccnc(NCc2ccccc2)c1`, the Ratio IC50 in series [15] was found to be 12. Further, the IC50 in series [13] amounted to 0.79 µM.

`CNCC[C@@H](Oc1cc(C(F)(F)F)ccc1C#N)c1ccccc1.Cl`: in series [15], the Ratio IC50 turned out to be 1400. For the same compound, the IC50 is 0.071 µM in series [13]; 28 µM in series [1] (read-out: IC50); 10 µM in series [2] (read-out: IC50); 1.6 µM in series [3] (read-out: IC50); “Not Active” in series [4]; 2.7 µM in series [14] (read-out: IC50). This compound had a log distribution coefficient (logD) in series [11] of 1.3.

As to `CNCC[C@@H](Oc1cc(OC)ccc1C#N)c1ccccc1.O=C(O)C(=O)O`, the concentration for half-maximal inhibition (IC50) is 0.11 µM in [13]; 12 µM in series [1] (read-out: IC50); 5.7 µM in series [2] (read-out: IC50); 0.3 µM in series [3] (read-out: IC50); “Not Active” in series [4]; 9.5 µM in series [14] (read-out: IC50). In [11], this compound gave a logD of 0.9.

`CCC(CCNC)Oc1cc(Cl)ccc1C#N.Cl` (racemic): the Ratio IC50 in [15] came to 170. Besides, the IC50 is 0.051 µM in [13]; 7.1 µM in series [1] (read-out: IC50); 44 µM in [2] (read-out: IC50); 0.4 µM in series [3] (read-out: IC50); “Not Active” in series [4]; 3.6 µM in series [14] (read-out: IC50). In series [11], this compound yielded a logD of 0.4.

Consider `N#Cc1ccc(C(F)(F)F)nc1O[C@H](CCN)c1ccno1.O=C(O)C(=O)O`, for which the 50% inhibitory concentration (IC50) in [13] is 0.0054 µM; in [1] (read-out: IC50), over 100 µM; in series [2] (read-out: IC50) it was 70 µM; in series [3] (read-out: IC50), over 14 µM; in series [4] (read-out: IC50), over 10 µM; in series [14] (read-out: IC50) it was 0.72 µM. For the same compound, the Vd in series [8] was 3.4 L/kg. In [10], this compound had a bioavailability of 49%. Moreover, the logD in [11] was -0.5.

Regarding `N#Cc1cc(F)c(Cl)cc1O[C@H](CCN)c1ccccc1.O=C(O)C(=O)O`, the Ratio IC50 in series [15] is over 10000. Besides, the IC50 in series [13] is 0.006 µM; in series [1] (read-out: IC50), 16 µM; in [2] (read-out: IC50), 4.4 µM; in series [3] (read-out: IC50), 0.34 µM; in [4] (read-out: IC50), over 10 µM; in series [14] (read-out: IC50), 0.7 µM. Moreover, the Stability in series [5] was under 1 µL/min; in series [6] it was 6 µL/min; in series [12], 8.9 µL/min. In addition, the clearance in [7] was 49 mL/min/kg. Also, the Vd in series [8] was 13 L/kg. The half-life in [9] was 4.3 h. The compound further had a bioavailability in series [10] of 57%. The log distribution coefficient (logD) in series [11] is 0.8. Also, the outcome in series [16], in series [17] and in [18] was Active.

`CNCC[C@@H](Oc1cc(Cl)ccc1C#N)c1ccccc1.Cl`: the IC50 was 0.009 µM in series [13]; 0.5 µM in series [1] (read-out: IC50); 4.5 µM in [2] (read-out: IC50); 1 µM in series [3] (read-out: IC50); 0.7 µM in [14] (read-out: IC50). For the same compound, the Stability in [5] was 1.4 µL/min; in series [6], 4 µL/min; in [12], 54 µL/min. This compound returned a clearance in series [7] of 94 mL/min/kg. In [8], the Vd stood at 6.6 L/kg. The same compound showed a half-life in series [9] of 1.3 h. Further, the logD in series [11] is 1.7.

On to `Cc1ccc(C#N)c(S[C@H](CCN)c2ccccc2)n1.O=C(O)/C=C/C(=O)O`, for which the Ratio IC50 in series [15] is over 10000. The IC50 in series [13] is 0.004 µM; in series [1] (read-out: IC50), 7.4 µM; in series [2] (read-out: IC50), 2.6 µM; in series [3] (read-out: IC50), 5 µM; in series [4], “Not Active”; in [14] (read-out: IC50) it was 0.6 µM. In [11], this compound came in with a pH-dependent lipophilicity (logD) of 0.7.

Consider `N#Cc1cc(Cl)ccc1O[C@H](CCN)c1ccccc1.O=C(O)/C=C/C(=O)O`, for which, in series [15], the Ratio IC50 turned out to be 100. Further, the IC50 in series [13] is 0.96 µM; in [1], “Not Active”; in series [2], “Not Active”; in [3], “Not Active”; in series [4] it was “Not Active”; in series [14] (dld-1), “Not Active”. Moreover, the logD in series [11] stood at 0.9.

For the compound `NCC(Oc1cc(Cl)ccc1Cl)c1ccccc1` (stereo not drawn), the Ratio IC50 in [15] is over 53. For the same compound, the half-maximal inhibitory concentration (IC50) was 1.9 µM in series [13]; “Not Active” in [1]; “Not Active” in [2]; “Not Active” in series [3]; “Not Active” in series [4]; “Not Active” in series [14] (dld-1).

With `N#Cc1ccc(Cl)cc1O[C@H](CCN)c1ccccc1.O=C(O)C(=O)O`, in series [15], the Ratio IC50 is over 10000. The IC50 in series [13] is 0.004 µM; in series [1] (read-out: IC50), 15 µM; in series [2] (read-out: IC50) it was 2.1 µM; in series [3] (read-out: IC50), 0.4 µM; in series [4], “Not Active”; in [14] (read-out: IC50), 0.9 µM. For the same compound, in [11], the pH-dependent lipophilicity (logD) is 0.8.

In the case of `CNCC[C@@H](Oc1cc(Cl)ccc1Cl)c1ccccc1.O=C(O)/C=C/C(=O)O`, the Ratio IC50 in [15] is over 4500. The half-inhibitory concentration (IC50) is 0.022 µM in series [13], “Not Active” in series [3], “Not Active” in [4] and 8.7 µM in series [14] (read-out: IC50).
